From the supplement of paper PMC10307832

Assays:
Experiment in all cases: relative viability (nuclei count vs DMSO), 5 days (fraction); higher = more cells survive
Sorafenib + Luminespib = compound: CNC(=O)c1cc(Oc2ccc(NC(=O)Nc3ccc(Cl)c(C(F)(F)F)c3)cc2)ccn1 [Sorafenib] + CCNC(=O)c1noc(-c2cc(C(C)C)c(O)cc2O)c1-c1ccc(CN2CCOCC2)cc1 [Luminespib] (partner 0.01 µM)
Procedure, shortened: (§1)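 Lung cancer cell lines, seeded in 1536-well plates, were treated the following day by pin tool with a single drug or with five library-drug doses (not always all listed) in √10 steps on top of a fixed anchor-drug dose. Cells were fixed and nuclei stained in one step after 5 days, and nuclei were counted. Relative viability is the nuclei count for treated wells divided by that for vehicle wells, reported as medians of duplicate plates.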

Sorafenib + OSI-027 = compound: CNC(=O)c1cc(Oc2ccc(NC(=O)Nc3ccc(Cl)c(C(F)(F)F)c3)cc2)ccn1 [Sorafenib] + COc1cccc2cc(-c3nc([C@H]4CC[C@H](C(=O)O)CC4)n4ncnc(N)c34)[nH]c12 [OSI-027] (partner 0.5 µM)
Procedure, shortened: as §1

Sorafenib + Pictilisib = compound: CNC(=O)c1cc(Oc2ccc(NC(=O)Nc3ccc(Cl)c(C(F)(F)F)c3)cc2)ccn1 [Sorafenib] + CS(=O)(=O)N1CCN(Cc2cc3nc(-c4cccc5[nH]ncc45)nc(N4CCOCC4)c3s2)CC1 [Pictilisib] (partner 1 µM)
Procedure, shortened: as §1

Sorafenib + Phenformin = compound: CNC(=O)c1cc(Oc2ccc(NC(=O)Nc3ccc(Cl)c(C(F)(F)F)c3)cc2)ccn1 [Sorafenib] + N=C(N)NC(=N)NCCc1ccccc1 [Phenformin] (partner 250 µM)
Procedure, shortened: as §1

Sorafenib + Olaparib = compound: CNC(=O)c1cc(Oc2ccc(NC(=O)Nc3ccc(Cl)c(C(F)(F)F)c3)cc2)ccn1 [Sorafenib] + O=C(c1cc(Cc2n[nH]c(=O)c3ccccc23)ccc1F)N1CCN(C(=O)C2CC2)CC1 [Olaparib] (partner 8 µM)
Procedure, shortened: as §1

HARA showed a relative viability (Sorafenib + Luminespib; first compound 0.08 µM) of 0.936, a relative viability (Sorafenib + Luminespib; first compound 0.253 µM) of 0.696 and a relative viability (Sorafenib + Luminespib; first compound 2.53 µM) of 0.609. It also gave a relative viability (Sorafenib + Luminespib; first compound 8 µM) of 0.526, a relative viability (Sorafenib + OSI-027; first compound 0.08 µM) of 0.606 and a relative viability (Sorafenib + OSI-027; first compound 0.253 µM) of 0.5. It also gave a relative viability (Sorafenib + OSI-027; first compound 2.53 µM) of 0.619, a relative viability (Sorafenib + OSI-027; first compound 8 µM) of 0.257 and a relative viability (Sorafenib + Pictilisib; first compound 0.08 µM) of 0.373. It also gave a relative viability (Sorafenib + Pictilisib; first compound 0.253 µM) of 0.341, a relative viability (Sorafenib + Pictilisib; first compound 2.53 µM) of 0.411 and a relative viability (Sorafenib + Pictilisib; first compound 8 µM) of 0.327. The relative viability (Sorafenib + Phenformin; first compound 0.08 µM) was 0.498, the relative viability (Sorafenib + Phenformin; first compound 0.253 µM) was 0.456 and the relative viability (Sorafenib + Phenformin; first compound 2.53 µM) was 0.41. The relative viability (Sorafenib + Phenformin; first compound 8 µM) was 0.307, the relative viability (Sorafenib + Olaparib; first compound 0.08 µM) was 0.868 and the relative viability (Sorafenib + Olaparib; first compound 0.253 µM) was 0.794. The relative viability (Sorafenib + Olaparib; first compound 2.53 µM) was 0.391 and the relative viability (Sorafenib + Olaparib; first compound 8 µM) was 0.478.
Cell Line HCC-15 has a relative viability (Sorafenib + Luminespib; first compound 0.08 µM) of 0.533, a relative viability (Sorafenib + Luminespib; first compound 0.253 µM) of 0.26 and a relative viability (Sorafenib + Luminespib; first compound 2.53 µM) of 0.338. For the same cell line, the relative viability (Sorafenib + Luminespib; first compound 8 µM) was 0.185, the relative viability (Sorafenib + OSI-027; first compound 0.08 µM) was 0.631 and the relative viability (Sorafenib + OSI-027; first compound 0.253 µM) was 0.558. It also gave a relative viability (Sorafenib + OSI-027; first compound 2.53 µM) of 0.712, a relative viability (Sorafenib + OSI-027; first compound 8 µM) of 0.386 and a relative viability (Sorafenib + Pictilisib; first compound 0.08 µM) of 0.729. For the same cell line, the relative viability (Sorafenib + Pictilisib; first compound 0.253 µM) was 0.683, the relative viability (Sorafenib + Pictilisib; first compound 8 µM) was 0.602 and the relative viability (Sorafenib + Phenformin; first compound 0.08 µM) was 0.501. The relative viability (Sorafenib + Phenformin; first compound 0.253 µM) was 0.403, the relative viability (Sorafenib + Phenformin; first compound 2.53 µM) was 0.442 and the relative viability (Sorafenib + Phenformin; first compound 8 µM) was 0.212. It also gave a relative viability (Sorafenib + Olaparib; first compound 0.08 µM) of 0.701, a relative viability (Sorafenib + Olaparib; first compound 0.253 µM) of 0.641 and a relative viability (Sorafenib + Olaparib; first compound 2.53 µM) of 0.575. It also gave a relative viability (Sorafenib + Olaparib; first compound 8 µM) of 0.442.
In the case of HCC-44, the relative viability (Sorafenib + Luminespib; first compound 0.08 µM) is reported as 1.09, the relative viability (Sorafenib + Luminespib; first compound 0.253 µM) is reported as 1.01 and the relative viability (Sorafenib + Luminespib; first compound 2.53 µM) is reported as 1.02. For the same cell line, the relative viability (Sorafenib + Luminespib; first compound 8 µM) was 0.992, the relative viability (Sorafenib + OSI-027; first compound 0.08 µM) was 0.552 and the relative viability (Sorafenib + OSI-027; first compound 0.253 µM) was 0.431. It also gave a relative viability (Sorafenib + OSI-027; first compound 2.53 µM) of 0.741, a relative viability (Sorafenib + OSI-027; first compound 8 µM) of 0.395 and a relative viability (Sorafenib + Pictilisib; first compound 0.08 µM) of 0.628. The relative viability (Sorafenib + Pictilisib; first compound 0.253 µM) was 0.693, the relative viability (Sorafenib + Pictilisib; first compound 2.53 µM) was 0.673 and the relative viability (Sorafenib + Pictilisib; first compound 8 µM) was 0.549. For the same cell line, the relative viability (Sorafenib + Phenformin; first compound 0.08 µM) was 0.269, the relative viability (Sorafenib + Phenformin; first compound 0.253 µM) was 0.153 and the relative viability (Sorafenib + Phenformin; first compound 2.53 µM) was 0.311. For the same cell line, the relative viability (Sorafenib + Phenformin; first compound 8 µM) was 0.207, the relative viability (Sorafenib + Olaparib; first compound 0.08 µM) was 0.936 and the relative viability (Sorafenib + Olaparib; first compound 0.253 µM) was 0.876. It also gave a relative viability (Sorafenib + Olaparib; first compound 2.53 µM) of 0.92 and a relative viability (Sorafenib + Olaparib; first compound 8 µM) of 0.953.
With HCC-78 the relative viability (Sorafenib + OSI-027; first compound 0.08 µM) was 0.39, the relative viability (Sorafenib + OSI-027; first compound 0.253 µM) was 0.304 and the relative viability (Sorafenib + OSI-027; first compound 2.53 µM) was 0.431. The relative viability (Sorafenib + OSI-027; first compound 8 µM) was 0.384, the relative viability (Sorafenib + Pictilisib; first compound 0.08 µM) was 0.254 and the relative viability (Sorafenib + Pictilisib; first compound 0.253 µM) was 0.229. It also gave a relative viability (Sorafenib + Pictilisib; first compound 2.53 µM) of 0.268, a relative viability (Sorafenib + Pictilisib; first compound 8 µM) of 0.217 and a relative viability (Sorafenib + Phenformin; first compound 0.08 µM) of 0.812. The relative viability (Sorafenib + Phenformin; first compound 0.253 µM) was 0.598, the relative viability (Sorafenib + Phenformin; first compound 8 µM) was 0.713 and the relative viability (Sorafenib + Olaparib; first compound 0.08 µM) was 0.891. It also gave a relative viability (Sorafenib + Olaparib; first compound 0.253 µM) of 0.953, a relative viability (Sorafenib + Olaparib; first compound 2.53 µM) of 0.909 and a relative viability (Sorafenib + Olaparib; first compound 8 µM) of 0.819.
HCC-366 gave a relative viability (Sorafenib + OSI-027; first compound 0.08 µM) of 0.951, a relative viability (Sorafenib + OSI-027; first compound 0.253 µM) of 0.937 and a relative viability (Sorafenib + OSI-027; first compound 2.53 µM) of 0.866. For the same cell line, the relative viability (Sorafenib + OSI-027; first compound 8 µM) was 0.327, the relative viability (Sorafenib + Pictilisib; first compound 0.08 µM) was 0.208 and the relative viability (Sorafenib + Pictilisib; first compound 0.253 µM) was 0.118. For the same cell line, the relative viability (Sorafenib + Pictilisib; first compound 2.53 µM) was 0.138, the relative viability (Sorafenib + Pictilisib; first compound 8 µM) was 0.151 and the relative viability (Sorafenib + Phenformin; first compound 0.08 µM) was 0.598. It also gave a relative viability (Sorafenib + Phenformin; first compound 0.253 µM) of 0.507, a relative viability (Sorafenib + Phenformin; first compound 2.53 µM) of 0.539 and a relative viability (Sorafenib + Phenformin; first compound 8 µM) of 0.559. The relative viability (Sorafenib + Olaparib; first compound 0.08 µM) was 0.354, the relative viability (Sorafenib + Olaparib; first compound 0.253 µM) was 0.319 and the relative viability (Sorafenib + Olaparib; first compound 2.53 µM) was 0.287. For the same cell line, the relative viability (Sorafenib + Olaparib; first compound 8 µM) was 0.268.
